Reference: patent US6864363B2 (priority 2000, dated 2005)
Several values for one entry are separate records, joined by “and”; a condition that tells them apart may be missing. Equal values may be shown once. Square brackets hold non-standard residues; d marks the D form. Peptide text beside a SMILES is read from it. * marks the point of attachment. Sta = CC(C)C[C@H](N)[C@@H](O)CC(=O)O; Isovaleryl = CC(C)CC(=O)*

Test system: P. gingivalis DPP-7
Format: biochemical, Porphyromonas gingivalis

Molecule	% of residual activity	inactivation of / influence on DPP-7 activity (in words)
NC(N)=NCCC[C@H](N)C(=O)NCC(=O)O [Arg-Gly] (H-Arg-Gly-OH)	84%	
NC(N)=NCCC[C@H](N)C(=O)N[C@@H](Cc1ccccc1)C(=O)O [Arg-Phe]	69%	
N[C@@H](CS)C(=O)O [Cysteine]	90%	
O=C(O)CN(CCN(CC(=O)O)CC(=O)O)CC(=O)O [EDTA]	90%	did not influence its activity
C[C@H](NC(=O)CN)C(=O)O [Gly-Ala] (H-Gly-Ala-OH)	102%	
O=C(O)CI [Iodoacetic acid]	102%	not
CC(=O)N[C@@H](CC(C)C)C(=O)N[C@@H](CC(C)C)C(=O)N[C@H](C=O)CCCNC(=N)N [Leupeptin]	107%	
NCCCC[C@H](N)C(=O)NCC(=O)O [Lys-Gly] (H-Lys-Gly-OH)	96%	
Cl.NCCc1ccc(S(=O)(=O)F)cc1 [PEFABLOCK, 4-(2-aminoethyl)-benzenesulfonyl fluoride hydrochloride]	1%	inactivated
CC(C)CC(=O)N[C@H](C(=O)N[C@H](C(=O)N[C@@H](CC(C)C)[C@@H](O)CC(=O)N[C@@H](C)C(=O)N[C@@H](CC(C)C)[C@@H](O)CC(=O)O)C(C)C)C(C)C [Pepstatin] (Isovaleryl-VV[Sta]A[Sta]-OH)	127%	
CCCCCCCCCCCCOS(=O)(=O)[O-].[Na+] [SDS]		not sensitive to inactivation
Aprotinin	128%	
Triton X-100	144% and 103% and 94%	not sensitive to inactivation
α1-proteinase inhibitor: human plasma inhibitor		did not effect enzyme activity
α2-macroglobulin: human plasma inhibitor		did not effect enzyme activity
α1-antichymotrypsin: human plasma inhibitor (protein) HPNSPLDEENLTQENQDRGTHVDLGLASANVDFAFSLYKQLVLKAPDKNVIFSPLSISTALAFLSLGAHNTTLTEILKGLKFNLTETSEAEIHQSFQHLLRTLNQSSDELQLSMGNAMFVKEQLSLLDRFTEDAKRLYGSEAFATDFQDSAAAKKLINDYVKNGTRGKITDLIKDLDSQTMMVLVNYIFFKAKWEMPFDPQDTHQSRFYLSKKKWVMVPMMSLHHLTIPYFRDEELSCTVVELKYTGNASALFILPDQDKMEEVEAMLLPETLKRWRDSLEFREIGELYLPKFSISRDYNLNDILLQLGIEEAFTSKADLSGITGARNLAVSQVVHKAVLDVFEEGTEASAATAVKITLLSALVETRTIVRFNRPFLMIIVPTDTQNIFFMSKVTNPKQA		did not effect enzyme activity
